# Laboratory results: US9562059B2, “Anticancer maytansinoids with two fused macrocyclic rings” (priority 2013, dated 2017)
# Entries after “also recorded” stand apart in the source; their conditions may differ. Read-outs that look alike come from different tables or passages of the source.
# Tests used:
# Lu1 cells = assay: In vivo hollow fiber test, Lu1 cells; parameters: species or system mice
# Experimental: (§1) Hollow fiber tests are well known in the art for providing preliminary indications of therapeutic efficacy (Mi et al. (2002), J. Nat. Prod. 65: 842-850). In hollow fiber tests, human tumor cell lines currently employed in cell cultures are grown inside semipermeable hollow fibers to form heterogeneous solid tumor models. The hollow fibers containing the human tumor cells are implanted in the intraperitoneal or subcutaneous compartments of host mice, and the mice treated with the test compound of interest (Hollingshead et al, (1995), Life Sciences 57(2):131-141).
# (§2) Loeseneriellin B isolated from Loeseneriella pauciflora (Celastraceae) is tested for in vivo hollow fiber study.
# [1] = test system: KB, Col-2, LNCaP, Lu-1, and MCF-7 cell lines; assay: In vitro anti-tumor activity against the tumor cell line panel; type: cell-based, human; conditions: Lu-1, MCF-7
# Experimental: The in vitro anti-tumor activity of isolated compounds (1-6) is evaluated against KB, Col-2, LNCaP, Lu-1, and MCF-7 cell lines. […] However, because of the much different stereochemistry, the bimacrocyclic maytansinoid may have a different anticancer therapeutic window from that of mono-macrocyclic maytansine derivatives.
# Human oral epidermoid carcinoma KB cell line, human promyelocytic leukemia HL-60 cell line, human prostate carcinoma LNCaP cell line, human breast carcinoma MCF-7 cell line, human colon carcinoma Col2 cell line, and human lung carcinoma Lu1 cell line are activated from the frozen cells that are stored in Department of Medicinal Chemistry and Pharmacognosy, University of Illinois at Chicago, Chicago, Ill. Col2 cells are maintained in MEME medium. KB cells are maintained in DMEM medium. LNCaP cells are maintained in RPMI1640 medium with hormone-free 10% […] FBS (fetal bovine serum) supplemented with 0.1 nM testosterone, Lu1 cells are cultured in MEME medium. MCF-7 cells are maintained in MEME medium containing 10 mg/L of insulin. […]
# Extracts, fractions, and compounds are tested in a human oral epidermoid carcinoma (KB) cell line using established protocols. In addition, all pure compounds are evaluated against the other human cancer cell lines comprising our cytotoxicity screening panel. […]
# [2] = HCT116 xenograft mouse model, body weight; type: in vivo, nude mice; conditions: 20 and 40 μg/kg i.v. daily for 3 weeks (FIG. 3)
# Experimental: (§3) HCT116 cancer cells (2×10^7 cells in 100 μL suspension) are subcutaneously implanted in the rear flank of each mouse. After 10 days, solid tumors appear at the implanted sites. […] Daily injections at i.v. sites were scheduled for 21 days.
# (§4) FIGS. 1 to 3 show the inhibition of HCT116-tumor xenograft growth by loeseneriellin B. The treatment started on the 10th day when the tumor size reached approximately 100 mm^3 (L×W×W).
# [3] = test system: human colon carcinoma Col2 cell line; assay: Cell culture panel bioassay, Col2 cell line; type: cell-based
# Excerpt: (§5) Human oral epidermoid carcinoma KB cell line, human promyelocytic leukemia HL-60 cell line, human prostate carcinoma LNCaP cell line, human breast carcinoma MCF-7 cell line, human colon carcinoma Col2 cell line, and human lung carcinoma Lu1 cell line are activated from the frozen cells that are stored in Department of Medicinal Chemistry and Pharmacognosy, University of Illinois at Chicago, Chicago, Ill. Col2 cells are maintained in MEME medium. KB cells are maintained in DMEM medium. LNCaP cells are maintained in RPMI1640 medium with hormone-free 10% […] FBS (fetal bovine serum) supplemented with 0.1 nM testosterone, Lu1 cells are cultured in MEME medium. MCF-7 cells are maintained in MEME medium containing 10 mg/L of insulin. In each case, PSF (100 units/mL penicillin G, 100 μg/mL streptomycin sulfate, 250 ng/mL amphotericin B) is added. All media are supplemented with 10% heat-inactivated FBS.
# (§6) Extracts, fractions, and compounds are tested in a human oral epidermoid carcinoma (KB) cell line using established protocols. In addition, all pure compounds are evaluated against the other human cancer cell lines comprising our cytotoxicity screening panel. Cytotoxicity assays involving colon (Col-2), prostate (LNCaP), and lung (Lu1) carcinoma cell lines are performed using sulforhodamine B according to established protocols.
# [4] = test system: human breast carcinoma MCF-7 cell line; assay: Cell culture panel bioassay, MCF-7 cell line; type: cell-based
# Excerpt: as §5, §6
# Col2 cells = assay: In vivo hollow fiber test, Col2 cells; parameters: species or system mice
# Experimental: as §1, §2
# HCT116 cancer cells = assay: HCT116 xenograft mouse model, tumor growth; type: in vivo, nude mice; conditions: for average tumor size (L×W×W) suppressed in comparison with the control group: after 21 days
# Experimental: as §3, §4
# [5] = test system: human oral epidermoid carcinoma KB cell line; assay: Cell culture panel bioassay, KB cell line; type: cell-based; conditions: read-out: IC50 KB
# Excerpt: as §5, §6
# [6] = test system: human lung carcinoma Lu1 cell line; assay: Cell culture panel bioassay, Lu1 cell line; type: cell-based
# Excerpt: as §5, §6
# MCF7 cells = assay: In vivo hollow fiber test, MCF7 cells; parameters: species or system mice
# Experimental: as §1, §2
# [7] = test system: human prostate carcinoma LNCaP cell line; assay: Cell culture panel bioassay, LNCaP cell line; type: cell-based; conditions: for IC50: read-out: IC50 LNCaP
# Excerpt: as §5, §6
# [8] = cited from earlier work
# KB cells = conditions: Powell et al. (1982); cited from earlier work
# [9] = test system: P388 lymphocytic leukemia; conditions: Powell et al. (1982); cited from earlier work
# [10] = concentration required to inhibit cell growth by 50%, triplicate experiments, read-out: IC50 Col2
# [11] = concentration required to inhibit cell growth by 50%, triplicate experiments, read-out: IC50 MCF-7
# [12] = concentration required to inhibit cell growth by 50%, triplicate experiments
# [13] = concentration required to inhibit cell growth by 50%, triplicate experiments, read-out: IC50 Lu1
molecule,measurement,setting,value
"COc1cc2cc(c1Cl)N1CC(C)C(C)(O)C(=O)N[C@@H](C)C(=O)O[C@@H](CC1=O)[C@]1(C)OC1[C@H](C)[C@@H]1C[C@@](O)(NC(=O)O1)[C@H](OC)/C=C/C=C(\C)C2 (some centres unmarked) [Compound 1, Loeseneriellin B]",Inhibition (%),"Lu1 cells; Lu1-IP, dose 0.05 mg/kg",34.9%
same,Inhibition (%),"Lu1 cells; Lu1-IP, dose 0.1 mg/kg",20.9%
same,Inhibition (%),"Lu1 cells; Lu1-SC, dose 0.05 mg/kg",0%
same,Inhibition (%),"Lu1 cells; Lu1-SC, dose 0.1 mg/kg",0%
same,bioactivity compared with maytansine (3),[1],comparable bioactivity to that of maytansine
same,body weights of mice,[2],No apparent weight loss; also recorded: insignificant change in body weights
same,IC50,"[3]; Homo sapiens, Col2, read-out: IC50 Col2",200 pM
same,IC50,"[4]; Homo sapiens, MCF7, read-out: IC50 MCF-7",680 pM
same,Inhibition (%),"Col2 cells; Col2-IP, dose 0.05 mg/kg, listed as Loeseneriellin B",65.5%
same,Inhibition (%),"Col2 cells; Col2-IP, dose 0.05 mg/kg, listed as loeseneriellin B",more than 65%
same,Inhibition (%),"Col2 cells; Col2-IP, dose 0.1 mg/kg",70.5%
same,Inhibition (%),"Col2 cells; Col2-SC, dose 0.05 mg/kg",0%
same,Inhibition (%),"Col2 cells; Col2-SC, dose 0.1 mg/kg",1.4%
same,"excised tumor weights, % inhibition versus control",HCT116 cancer cells; high dose 40 μg/kg i.v. daily for 3 weeks (FIG. 2),41.7%
same,average tumor size (L×W×W) suppressed in comparison with the control group,HCT116 cancer cells; high dose 40 μg/kg i.v. daily,41.7%
same,"excised tumor weights, % inhibition versus control",HCT116 cancer cells; low dose 20 μg/kg i.v. daily for 3 weeks (FIG. 2),38.3%
same,average tumor size (L×W×W) suppressed in comparison with the control group,HCT116 cancer cells; low dose 20 μg/kg i.v. daily,38.3%
same,IC50,"[5]; Homo sapiens, KB",150 pM
same,IC50,"[6]; Homo sapiens, Lu1, read-out: IC50 Lu1",710 pM
same,Inhibition (%),"MCF7 cells; MCF7-IP, dose 0.05 mg/kg, listed as Loeseneriellin B",57.2%
same,Inhibition (%),"MCF7 cells; MCF7-IP, dose 0.05 mg/kg, listed as loeseneriellin B",more than 65%
same,Inhibition (%),"MCF7 cells; MCF7-IP, dose 0.1 mg/kg",75.5%
same,Inhibition (%),"MCF7 cells; MCF7-IP, dose 0.2 mg/kg",84.6%
same,Inhibition (%),"MCF7 cells; MCF7-SC, dose 0.05 mg/kg",0%
same,Inhibition (%),"MCF7 cells; MCF7-SC, dose 0.1 mg/kg",0%
same,Inhibition (%),"MCF7 cells; MCF7-SC, dose 0.2 mg/kg",40.1%
same,IC50,"[7]; Homo sapiens, LNCaP",250 pM
"COc1cc2cc(c1Cl)N(C)C(=O)C[C@H](OC(=O)[C@H](C)N(C)C(C)=O)[C@]1(C)O[C@H]1[C@H](C)[C@@H]1C[C@@](O)(NC(=O)O1)[C@H](OC)/C=C/C=C(\C)C2 [Compound 3, Maytansine]",IC50,[3]; [10],190 pM
same,IC50,[4]; [11],690 pM
same,IC50,[5]; [12],170 pM
same,IC50,[6]; [13],770 pM
same,IC50,[7]; [12],320 pM
same,systemic toxicity in human clinical trials,[8],unacceptable systemic toxicity
"CCC(=O)N(C)[C@@H](C)C(=O)O[C@H]1CC(=O)N(C)c2cc(cc(OC)c2Cl)C/C(C)=C/C=C[C@@H](OC)[C@@]2(O)C[C@H](OC(=O)N2)[C@@H](C)[C@@H]2O[C@@]12C [Compound 4, Maytanprine]",IC50,[3]; [10],160 pM
same,IC50,[4]; [11],170 pM
same,IC50,[5]; [12],61 pM
same,IC50,[6]; [13],350 pM
same,IC50,[7]; [12],160 pM
"COc1cc2cc(c1Cl)N(C)C(=O)C[C@H](OC(=O)C(C)N(C)C(=O)C(C)C)[C@]1(C)O[C@H]1[C@H](C)[C@@H]1C[C@@](O)(NC(=O)O1)[C@H](OC)/C=C/C=C(\C)C2 (some centres unmarked) [Compound 5, Maytanbutine]",IC50,[3]; [10],61 pM
same,IC50,[4]; [11],130 pM
same,IC50,[5]; [12],50 pM
same,IC50,[6]; [13],130 pM
same,IC50,[7]; [12],54 pM
"COc1cc2cc(c1Cl)N(C)C(=O)CC(OC(=O)C(C)N(C)C(=O)CC(C)C)C1(C)OC1C(C)C1CC(O)(NC(=O)O1)C(OC)/C=C/C=C(\C)C2 (centres unmarked) [Compound 6, Maytanvaline]",IC50,[3]; [10],150 pM
same,IC50,[4]; [11],270 pM
same,IC50,[5]; [12],110 pM
same,IC50,[6]; [13],690 pM
same,IC50,[7]; [12],160 pM
CC(=O)O[C@H]1C(=O)[C@@]2(C)[C@H]([C@H](OC(=O)c3ccccc3)[C@]3(O)C[C@H](OC(=O)[C@H](O)[C@@H](NC(=O)c4ccccc4)c4ccccc4)C(C)=C1C3(C)C)[C@]1(OC(C)=O)CO[C@@H]1C[C@@H]2O [Paclitaxel],Inhibition (%),"Lu1 cells; Lu1-IP, dose 2.0 mg/kg",39.9%
same,Inhibition (%),"Lu1 cells; Lu1-SC, dose 2.0 mg/kg",0%
same,inhibition at 0.02 µg/mL,"[3]; Homo sapiens, Col2, at 20 ng/mL, positive control, read-out: inhibition against Col2",76%
same,inhibition at 0.02 µg/mL,"[4]; Homo sapiens, MCF7, at 20 ng/mL, positive control, read-out: inhibition against MCF-7",71%
same,Inhibition (%),"Col2 cells; Col2-SC, dose 2.0 mg/kg",6.9%
same,"excised tumor weights, % inhibition versus control",HCT116 cancer cells; 5 mg/kg i.v. daily for 3 weeks (FIG. 2),37.6%
same,inhibition at 0.02 µg/mL,"[6]; Homo sapiens, Lu1, at 20 ng/mL, positive control, read-out: inhibition against Lu-1",56%
same,Inhibition (%),"MCF7 cells; MCF7-IP, dose 2.0 mg/kg",71.3%
same,Inhibition (%),"MCF7 cells; MCF7-SC, dose 2.0 mg/kg",0%
same,inhibition at 0.02 µg/mL,"[7]; Homo sapiens, LNCaP, at 20 ng/mL, positive control, read-out: inhibition against LNCaP",89%
COc1cc2cc(c1Cl)N1CCC(C)(O)C(=O)N[C@@H](C)C(=O)O[C@@H](CC1=O)[C@]1(C)OC1[C@H](C)[C@@H]1C[C@@](O)(NC(=O)O1)[C@H](OC)/C=C/C=C(\C)C2OC (some centres unmarked) [treflorine],antitumor activity against KB cells,KB cells,retain antitumor activity
same,antitumor activity against P388 lymphocytic leukemia,[9],retain antitumor activity
COc1cc2cc(c1Cl)N1CC(O)C(C)(O)C(=O)N[C@@H](C)C(=O)O[C@@H](CC1=O)[C@]1(C)OC1[C@H](C)[C@@H]1C[C@@](O)(NC(=O)O1)[C@H](OC)/C=C/C=C(\C)C2OC (some centres unmarked) [trenudine],antitumor activity against KB cells,KB cells,retain antitumor activity
same,antitumor activity against P388 lymphocytic leukemia,[9],retain antitumor activity
"CC[C@]1(O)C[C@@H]2CN(CCc3c([nH]c4ccccc34)[C@@](C(=O)OC)(c3cc4c(cc3OC)N(C)[C@H]3[C@@](O)(C(=O)OC)[C@H](OC(C)=O)[C@]5(CC)C=CCN6CC[C@]43[C@@H]65)C2)C1 [vinblastine, Vinblastine]",inhibition at 0.04 µg/mL,"[3]; Homo sapiens, Col2, at 40 ng/mL, positive control, read-out: inhibition against Col2",87%
same,inhibition at 0.04 µg/mL,"[4]; Homo sapiens, MCF7, at 40 ng/mL, positive control, read-out: inhibition against MCF-7",70%
same,inhibition at 0.04 µg/mL,"[6]; Homo sapiens, Lu1, at 40 ng/mL, positive control, read-out: inhibition against Lu-1",54%
same,inhibition at 0.04 µg/mL,"[7]; Homo sapiens, LNCaP, at 40 ng/mL, positive control, read-out: inhibition against LNCaP",89%
Loeseneriellin A [Compound 2],IC50,[3]; [10],180 pM
same,IC50,[4]; [11],190 pM
same,IC50,[5]; [12],100 pM
same,IC50,[6]; [13],380 pM
same,IC50,[7]; [12],180 pM
